The record followed here is patent US20100273656A1, “COMPOSITION AND METHOD FOR SELECTIVE HERBICIDE” (priority 2002, published 2010).

Data set [1] has as its system white clover. As to the kind of experiment: Example 23 Cu-, Mn- or ZnHEDTA with Killex, white clover. The class given is in vivo. On the procedure: (§1) Plants were fertilized with an all purpose water-soluble fertilizer mix of 20-20-20 (N-P-K; Plant-Prod®) as needed. All broadleaf weeds were grown individually in a 2¼-inch pot until they were a suitable size for herbicide tests (actual weed size is reported in examples below). Perennial ryegrass was also grown in 2¼-inch pots, however many grass seeds were sown in the pot to simulate a small section of turf. Grass plants were continually trimmed to a height of 4 cm, simulating that of a homeowner's lawn. For field tests, plots ¼ m^2 in size were marked out in areas containing the targeted broadleaf weed species growing in turf grass. Plots were continually mowed to simulate a homeowner's lawn. […] In all of the examples, the amounts of the various herbicide components are identified as a percent on a weight basis.
(§2) Killex® (Scotts Canada, Ltd., Ontario, Canada) is a commonly used selective lawn herbicide and was used as the commercial herbicide for herbicide combinations. The labeled dilution and application rates for Killex® are 6 ml into 1 L of solution (0.6%) applied at 200 ml/m^2.
(§3) All visual plant damage assessments were made using a quantitative rating scale; percent control relative to the untreated check (0=no effect; 100=plant death).
(§4) Materials and Methods: This trial was conducted in the greenhouse. Ten white clover plants and 10 pots of perennial ryegrass were selected for each treatment. Herbicide solutions were prepared using deionized water. The treatments were applied using a hand-trigger sprayer at 200 ml/m^2. All treatments were applied once. Phytotoxicity (%) was assessed 4 and 7 days after treatment (A4 and A7).

Data set [2] deals with perennial ryegrass. As to the kind of experiment: Example 23 Cu-, Mn- or ZnHEDTA with Killex, perennial ryegrass. The class given is in vivo. As for the experimental part: as §1, §2, §3, §4
The subject of data set [3] is perennial ryegrass. As to the kind of experiment: Example 21 Fe chelates with Killex, perennial ryegrass. Format: in vivo. The conditions noted are these: A29 = 29 days after treatment. On the procedure:
as §1, §2, §3
(§5) Materials and Methods: This trial was conducted in the greenhouse. […] Phytotoxicity (%) was assessed 29 days after treatment (A29).

Data set [4] has as its system perennial ryegrass. As to the kind of experiment: Example 17 iron chelates with Killex, perennial ryegrass. The class given is in vivo. As for the experimental part: as §1, §2, §3
(§6) Materials and Methods: This trial was conducted in the greenhouse. Nine pots of white clover and 10 pots of perennial ryegrass were selected for each treatment. Herbicidal solutions were prepared using deionized water. The treatments were applied using a handheld trigger sprayer at 200 ml/m^2. All treatments were applied once. Phytotoxicity (%) was assessed 4, 7, and 14 days after application (A4, A7, and A14).

Data set [5] deals with white clover. As to the kind of experiment: Example 17 iron chelates with Killex, white clover. Format: in vivo. On the procedure: as §1, §2, §3, §6
Data set [6] relates to dandelion. As to the kind of experiment: Example 14 field dandelion test of iron chelates and 50:50 mixtures. Format: in vivo, Taraxacum officinale. The arrangement: Surviving Dandelions (%): concentration or dose not given beside the values. The source says:
Solutions were made of FeHEDTA (0.2% Fe), FeEDTA (0.2% Fe), FeEDDS (0.4% Fe), and FeMGDA (0.4% Fe). For the combinations, these 4 solutions were mixed together in a 1:1 ratio. The plots (0.25 m^2) were sprayed 3 times at weekly intervals at a rate of 0.1 L/m^2. The plots contained a mixture of dandelion and hard fescue turfgrass.

In data set [7] the test system is dandelion. As to the kind of experiment: Example 21 Fe chelates with Killex, dandelion. Format: in vivo, Taraxacum officinale. The conditions noted are these: A29 = 29 days after treatment. As for the experimental part:
as §1, §2, §3, §5

Data set [8] relates to dandelions. As to the kind of experiment: Example 16 metal salts of EDTA, greenhouse dandelion mortality. The class given is in vivo, Taraxacum officinale. The conditions noted are these: for Dead Dandelion (#/20): pH 7. As for the experimental part:
This test investigated various metal chelates. All chelate solutions contained 0.4% metal ions with 10% excess chelator, and were adjusted to pH 7. For the combinations, these 4 solutions were mixed together in a 1:1 ratio. The solutions were sprayed onto greenhouse grown dandelions at a rate of 100 ml/m^2. The test was re-sprayed after 7 days.

Data set [9] deals with dandelions. As to the kind of experiment: Example 1 field test of iron chelates, dandelion damage. Format: in vivo, Taraxacum officinale. The conditions noted are these: sprayed once at 100 ml/m^2, 5 days after spraying. On the procedure: (§7) The following non-limiting examples serve to further describe the invention. Unless otherwise specified, all of the iron solutions were made using the same molar concentration of iron ion as chelating agent. All of the outside tests were done on areas of mixed grass and dandelions that were at least 2 months old. For the greenhouse tests, dandelions were grown in a commercial greenhouse mix, using supplemental lighting and heating. Each plant was grown in a 2¼ inch pot to a minimum diameter of 20 cm. All of the solutions were sprayed onto the plants at a rate of 100 ml/m^2. The ferrous sulfate formulations that were used in examples 1, 2, 8 and 9 contained 1% iron (180 mM), 18 mM EDTA, 1% citric acid and 0.5% urea. In all of the examples, the amount of iron is identified in brackets as the percent iron on a weight basis.
(§8) All plant damage was assessed using a qualitative rating scale from 0 to 9.
(§9) All of the iron chelates were sprayed once at 0.2% Fe^+3 (35.8 mM), at a volume of 100 ml/m^2 onto 0.5 m^2 areas of mixed grass and dandelions. The spraying of the test was followed by 2 days of rain-free weather. Observations were made 5 days after spraying.

The subject of another data set is grass. As to the kind of experiment: Example 1 field test of iron chelates, grass damage. The class given is in vivo. The conditions noted are these: field, sprayed once at 100 ml/m^2, 5 days after spraying. On the procedure: as §7, §8, §9
Data set [10] relates to dandelions. As to the kind of experiment: Example 7 potassium nonanoate with FeHEDTA, greenhouse dandelions. Format: in vivo, Taraxacum officinale. As for the experimental part:
as §7, §8
This test compared the damaged caused by combinations of fatty acid and FeHEDTA. FeHEDTA was used at a concentration to 35.8 mM. The treatment with 0.1% Fe contained twice the molar amount of chelating agent as iron. The treatment with 0.2% iron contained the same molar amount of chelating agent as iron Potassium nonanoate (KC9) was used at 0.84%. The plants were re-sprayed 8 days after the first spray.

Where [11] appears, read: A4 = 4 days after application, 0=no effect, 100=plant death.
Setting [12] is: A14 = 14 days after application.
Setting [13] is: day 6, sprayed 3 times at weekly intervals.
[14] abbreviates: day 10 (re-sprayed after 7 days).

`O=C([O-])CN(CCN(CCO)CC(=O)O)CC(=O)[O-].[Zn+2]` [ZnHEDTA 0.4% Zn]: the “Phytotoxicity (%) against white clover” value in the data set with white clover [1] (A4) worked out at 4%; in the data set with white clover [1] (A7) it was 3%. Further, the “Phytotoxicity (%) on perennial ryegrass” value in the data set on perennial ryegrass [2] (A4) was 1%; with perennial ryegrass [2] (A7) it was 0%.

Regarding `CC(C(=O)[O-])N(CC(=O)[O-])CC(=O)[O-].[Fe+3]` (stereo not shown) [FeMGDA], the “Phytotoxicity (%) on perennial ryegrass” value in the data set on perennial ryegrass [3] was 0%. Also, the “Phytotoxicity (%) against perennial ryegrass” value in the data set on perennial ryegrass [4] (A4), in the data set on perennial ryegrass [4] (A7) and in the data set on perennial ryegrass [4] (A14) was 0% in each case. The “Phytotoxicity (%) against white clover” value was 4% with white clover [5] (setting [11]), 5% with white clover [5] (A7 = 7 days after application) and 2% in the data set with white clover [5] (setting [12]). The “Area Covered by Dandelion (%)” value is 30% in the data set with dandelion [6] (day 0), 17% with dandelion [6] (setting [13]), 12% with dandelion [6] (day 15) and 2% in the data set on dandelion [6] (day 21). The “Dandelion Count (#/0.25 m^2)” value is 72 #/0.25 m^2 in the data set with dandelion [6] (day 0), 71 #/0.25 m^2 in the data set with dandelion [6] (day 6), 43 #/0.25 m^2 in the data set with dandelion [6] (day 13) and 19 #/0.25 m^2 in the data set with dandelion [6] (day 21). Moreover, the figures for the “Surviving Dandelions (%)” value in the data set on dandelion [6] (day 6), in the data set on dandelion [6] (day 13) and in the data set on dandelion [6] (day 21) were 99%, 60% and 26%, respectively. Also, the “Dandelion Necrosis (%)” value in the data set on dandelion [6] (day 11) is reported as 85%; with dandelion [6] (day 18), 99%; in the data set with dandelion [6] (day 33), 80%. Besides, the “Phytotoxicity (%) against dandelion” value with dandelion [7] is 12%.

For `[Cl][Fe]([Cl])[Cl]` [FeCl3 (0.4% Fe), ferric chloride], the “Dead Dandelion (#/20)” value with dandelions [8] (day 7) and in the data set on dandelions [8] (setting [14]) was 0 #/20 each time.

Consider `O=C([O-])CN(CCO)CCN(CC(=O)[O-])CC(=O)[O-].[Cu+2]` [CuHEDTA 0.4% Cu], for which the “Phytotoxicity (%) against white clover” value in the data set with white clover [1] (A4) turned out to be 32%; with white clover [1] (A7), 62%. Further, the “Phytotoxicity (%) on perennial ryegrass” value in the data set on perennial ryegrass [2] (A4) and with perennial ryegrass [2] (A7) was 3% each time.

On to `O=C([O-])CN(CCN(CC(=O)O)CC(=O)O)CC(=O)[O-].[Zn+2]` [Zn EDTA (0.4% Zn)], for which the “Dead Dandelion (#/20)” value with dandelions [8] (day 7) and with dandelions [8] (setting [14]) was 0 #/20 throughout.

With FeEDTA, in the data set with dandelions [9], the “Dandelion Damage (0 to 9)” value is on record as 8.3 0 to 9. Besides, the “Grass Damage (0 to 9)” value in the data set on grass came to 1. Also, in the data set with dandelions [8] (Example 16, text), the “herbicidal comparison of metal EDTA chelates, in words” value was “better herbicide than Al EDTA, Cu EDTA and ZnEDTA”. Moreover, the “Dead Dandelion (#/20)” value was 10 #/20 with dandelions [8] (day 7) and 17 #/20 with dandelions [8] (setting [14]). Besides, the “Phytotoxicity (%) against perennial ryegrass” value was determined as 4% in the data set on perennial ryegrass [4] (A4), 2% in the data set with perennial ryegrass [4] (A7) and 0% with perennial ryegrass [4] (A14). In addition, the entries for the “Phytotoxicity (%) against white clover” value in the data set with white clover [5] (setting [11]), in the data set with white clover [5] (A7 = 7 days after application) and with white clover [5] (setting [12]) were 15%, 15% and 6%, respectively. Also, the “Area Covered by Dandelion (%)” value is reported as 30% in the data set with dandelion [6] (day 0), 10% in the data set on dandelion [6] (setting [13]), 7% in the data set with dandelion [6] (day 15) and 1% in the data set with dandelion [6] (day 21). The “Dandelion Count (#/0.25 m^2)” value is listed as 56 #/0.25 m^2 in the data set on dandelion [6] (day 0), 33 #/0.25 m^2 with dandelion [6] (day 6), 20 #/0.25 m^2 in the data set on dandelion [6] (day 13) and 19 #/0.25 m^2 in the data set with dandelion [6] (day 21). Further, the figures for the “Surviving Dandelions (%)” value with dandelion [6] (day 6), in the data set with dandelion [6] (day 13) and in the data set with dandelion [6] (day 21) were 59%, 36% and 34%, respectively. The entries for the “Dandelion Necrosis (%)” value in the data set on dandelion [6] (day 11), in the data set on dandelion [6] (day 18) and in the data set with dandelion [6] (day 33) were 90%, 98% and 90%, respectively.

With `O=C([O-])CN(CCN(CC(=O)O)CC(=O)O)CC(=O)[O-].[Cu+2]` [Cu EDTA (0.4% Cu)], the “Dead Dandelion (#/20)” value in the data set on dandelions [8] (day 7) is 0 #/20; with dandelions [8] (setting [14]) it was 4 #/20.

In the case of `O=C([O-])CN(CCN(CC(=O)[O-])CC(=O)O)CC(=O)[O-].[Al+3]` [Al EDTA (0.4% Al)], the “Dead Dandelion (#/20)” value in the data set with dandelions [8] (day 7) and in the data set on dandelions [8] (setting [14]) was 0 #/20 each time.

In the case of `CCCCCCCCC(=O)[O-].[K+]` [KC9, Potassium nonanoate], in the data set on dandelions [10] (8 + 5 days after spraying), the “Dead Plants (#/10)” value is 0 #/10. In addition, the “Plant Damage (0 to 9)” value with dandelions [10] (8 + 5 days after spraying (re-sprayed after 8 days)) is 0.6 0 to 9; with dandelions [10] (7 days after spraying), 0.0 0 to 9.

For `O=C([O-])CN(CCO)CCN(CC(=O)[O-])CC(=O)[O-].[Mn+2]` [MnHEDTA 0.4% Mn], the “Phytotoxicity (%) against white clover” value in the data set with white clover [1] (A4) is listed as 9%; in the data set on white clover [1] (A7), 12%. For the same molecule, the “Phytotoxicity (%) on perennial ryegrass” value in the data set on perennial ryegrass [2] (A4) and with perennial ryegrass [2] (A7) was 1% throughout.
